The record followed here is patent US12600725B2 (Memorial Sloan-Kettering Cancer Center, priority 2013, dated 2026).

Structures are written as SMILES. Entries after “also recorded” stand apart in the source; their conditions may differ. Read-outs that look alike come from different tables or passages of the source.

Data set [1] has as its system LRP6 in the normal GI. Put plainly: PD analysis of normal GI tissues (Western blot). The format is in vivo, mouse. For orientation: Immunoblotting shows a protein as a band on a membrane.
Data set [2] relates to NCI-N87 cells. Put plainly: Cell viability assessment (CellTiter-Glo). Type of data set: cell-based. A general note: In ATP-based viability assays light output follows the ATP content of the culture.
Data set [3] can be described thus: in vivo. More on the design: species or system mouse.
Data set [4] deals with Hsp70 induction in HEK293 cells. Put plainly: Hsp70 induction in HA-TLR9 transfected HEK293 cells. The format is cell-based, human. The following applies: 24 h. On the procedure: Cell fractionation and immunoblotting. Cells were either treated with DMSO (vehicle) or indicated compounds for 24 hr and lysed in RIPA buffer (50 mM Tris-HCl, pH 7.4, 150 mM NaCl, 0.5% sodium deoxycholate and 0.5% NP40) supplemented with cocktail protease inhibitors (Roche) to produce whole cell lysates. Lysates for cytosol and membrane fractions were harvested using ProteoExtract Subcellular Proteome Extraction Kit (Calbiochem) following the manufacturer's instructions. Protein concentrations were determined using BCA kit (Pierce) according to the manufacturer's instructions. The protein lysates ([…]) were electrophoretically resolved by SDS-PAGE, transferred onto nitrocellulose membranes and probed with the indicated primary antibodies against: HER^2 (Zymed, 28004), Hsp70 (Stressgen, SPA-810), Grp94 (Stressgen, SPA-850), Hsp90α (Abcam, Ab2928), Hsp90β (StressMarq, SMC-107B), Grp78 (Cell Signaling, 3183), Raf-1 (Santa Cruz, sc-133), phospho-Raf-1 (Cell Signaling, 9421), MEK1/2 (Cell Signaling, 8727), phospho-MEK1/2 (Cell Signaling, 9154), ERK1/2 (Cell Signaling, 4695), phospho-ERK1/2 (Cell Signaling, 4370), AKT (Cell Signaling, 9272), GM130 (Cell Signaling, 2296), Flotillin 2 (Cell Signaling, 3436), Histone H4 (Cell Signaling, 2592), Histone H1 (Santa Cruz, sc-8030), Caspase 3 (Cell Signaling, 9665), cleaved PARP (Promega, G7341), a-tubulin (Sigma, T5168) and 3-actin (Sigma, A1978). After washing off the excess antibodies, the membranes were incubated with the corresponding horseradish peroxidase (HRP) conjugated secondary antibody. Blots were visualized by autoradiography using the Enhanced Chemiluminescence Detection System (GE Healthcare) according to manufacturer's instructions. […]
TLR^9-trafficking assay (Yang, Y. et al. Heat shock protein gp96 is a master chaperone for toll-like receptors and is important in the innate function of macrophages. Immunity 26, 215-26 (2007)). […] Fluorescence intensity was quantified using MetaMorph Microscopy Automation and Image Analysis Software (Molecular Devices Inc.) and normalized to the cell number.

The test system of data set [5] is IGF-II secretion by differentiated C2C12 cells. As to the kind of experiment: C2C12 differentiation and IGF-II secretion assay. Type of data set: cell-based, mouse. The following applies: 24 hrs treatment. An excerpt: C2C12 differentiation and IGF-II secretion assay (Wanderling, S. et al. GRP94 is essential for mesoderm induction and muscle development because it regulates insulin-like growth factor secretion. Mol. Biol. Cell 18, 3764-75 (2007); Ostrovsky, O., Ahmed, N.T. & Argon, Y. The chaperone activity of GRP94 toward insulin-like growth factor II is necessary for the stress response to serum deprivation. Mol. Biol. Cell 20, 1855-64 (2009)). C2C12 cells were maintained and cultured in DMEM in the presence of 10% FBS and 1% penicillin/streptomycin (Culture medium). C2C12 is an immortal line of mouse skeletal myoblasts originally derived from satellite cells from the thigh muscle of a two month old female mouse donor. These cells differentiate well into myocytes under appropriate culture conditions. […] Secreted IGF-II was quantified by using IGF-II mouse ELISA kit (Abcam, AB100696) according to the manufacturer's instructions. […] The bound IGF-II was detected with a biotinylated anti-IGF-II antibody. After the sequential incubation with HRP conjugated streptavidin, TMB One-step substrate reagent and the Stop solution, the absorbance was measured at 450 nm. The secreted IGF-II was quantified against a standard curve generated with recombinant IGF-II provided by the kit.

The test system of data set [6] is Toll-like receptor 9 (TLR9) trafficking in HEK293 cells transfected with HA-TLR9. Put plainly: TLR9-trafficking assay. Type of data set: cell-based, human. The following applies: 24 h treatment. The procedure:
TLR^9-trafficking assay (Yang, Y. et al. Heat shock protein gp96 is a master chaperone for toll-like receptors and is important in the innate function of macrophages. Immunity 26, 215-26 (2007)). HEK 293T cells were transfected with pUNO-hTLR9-HA (Invivogen) using X-tremgene HP (Roche) according to the manufacturer's instructions. At 24 hrs post-transfection, cells were split onto cell culture chamber slides (Lab-Tek). Cells were then treated for 24 hrs with indicated compound at varying concentrations. After treatment, cells were fixed for 20 min in 4% paraformaldehyde in PBS, permeabilized with 0.1% Triton-X 100 in PBS for 10 min, blocked with 3% BSA in PBS for 30 min, followed by staining for 1 hr with an anti-HA antibody (Abcam, ab9110) or a normal rabbit IgG. Cells were washed with PBS, stained with an anti-rabbit-Cy3 antibody (Invitrogen) and finally mounted in the dark at 4° C. with Prolong Gold Antifade reagent (with DAPI). Cells were visualized under a confocal microscope (Leica Upright Confocal SP5). Fluorescence intensity was quantified using MetaMorph Microscopy Automation and Image Analysis Software (Molecular Devices Inc.) and normalized to the cell number.

Data set [7] relates to C2C12 cells. As to the kind of experiment: Viability of C2C12 cells visualized by light microscopy. The format is cell-based, mouse. The following applies: 24 h.
The subject of data set [8] is Hsp70 induction and AKT degradation (cytosolic Hsp90 hallmarks) in C2C12 cells. As to the kind of experiment: Western blot of Hsp70 induction and AKT degradation in C2C12 cells. Type of data set: cell-based, mouse. The following applies: 24 hrs.
Experimental: Cell fractionation and immunoblotting. Cells were either treated with DMSO (vehicle) or indicated compounds for 24 hr and lysed in RIPA buffer (50 mM Tris-HCl, pH 7.4, 150 mM NaCl, 0.5% sodium deoxycholate and 0.5% NP40) supplemented with cocktail protease inhibitors (Roche) to produce whole cell lysates. Lysates for cytosol and membrane fractions were harvested using ProteoExtract Subcellular Proteome Extraction Kit (Calbiochem) following the manufacturer's instructions. Protein concentrations were determined using BCA kit (Pierce) according to the manufacturer's instructions. […] After washing off the excess antibodies, the membranes were incubated with the corresponding horseradish peroxidase (HRP) conjugated secondary antibody. Blots were visualized by autoradiography using the Enhanced Chemiluminescence Detection System (GE Healthcare) according to manufacturer's instructions. For all gels 3-actin was used as a protein loading control.

Take `CC(C)NCCCn1c(Sc2cc(Cl)cc(Cl)c2)nc2c(N)ncnc21` [PU-WS13]: the “LRP6 levels in normal GI” value in data set [1] (75 mg/kg) was “could not detect a significant decrease in LRP6”; in data set [1] (150 mg/kg) it was “no acute tox or change in LRP6 levels”. Further, the “sensitivity to Grp94 inhibition” value in data set [2] is “highly susceptible”. For the same compound, the “AUC0-24h for stomach relative to tumor AUC0-24h” value in data set [3] (75 mg/kg ip) worked out at 1.4 fold. Besides, in data set [3] (75 mg/kg ip), the “AUC0-24h for the large intestine relative to tumor AUC0-24h” value came to 2 fold. Further, the concentration at 2 h in data set [3] (female, nu/nu athymic, mouse, plasma, intraperitoneal, 75 mg/kg ip, read-out: PU-WS13 level in the plasma) is 100 µM; in data set [3] (female, nu/nu athymic, mouse, tumor, intraperitoneal, 75 mg/kg ip, read-out: PU-WS13 level in tumor), around 850 µM. Moreover, the AUC(0-t) in data set [3] (female, nu/nu athymic, mouse, plasma, 75 mg/kg ip, read-out: AUC0-24 h plasma) came to 1260 µM·h; in data set [3] (female, nu/nu athymic, mouse, tumor, 75 mg/kg ip, read-out: AUC0-24 h tumor), 9130 µM·h. In addition, the concentration at 24 h in data set [3] (female, nu/nu athymic, mouse, tumor, intraperitoneal, single dose of 75 mg/kg, 24 h post-administration) was 0.5 µM. Moreover, the Hsp70 induction entry in data set [4] was “fails to induce Hsp70”; in data set [8], “lack of Hsp70 induction; also recorded: has no effect”. Besides, the IGF-II secretion entry in data set [5] is on record as “inhibited IGF-II secretion”. Besides, the TLR9 trafficking result in data set [6] is given as “inhibits TLR^9 trafficking”. Besides, the “toxicity to C2C12 cells” value in data set [7] is on record as “not toxic”. Further, the AKT degradation result in data set [8] was “lack of Hsp70 induction and AKT degradation; also recorded: has no effect”.
